Data set [1] in a line: Relative solubility by turbidity threshold concentration in aqueous buffers (pH 1.5, 4.5, 6.8, 7.4). In kind it is physicochemical. The note with it: for turbidity threshold (L, M, H) 1.4: pH 1.4 [sic] (method: SGF pH 1.5); for turbidity threshold (L, M, H) 6.8: pH 6.8 (SIF); for turbidity threshold (L, M, H) 7.4: pH 7.4 (HEPES); for turbidity threshold (L, M, H) 4.5: pH 4.5 (SIF). Put shortly:
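Solubility class (high >250 μM, moderate 31.3–250 μM, low <31.3 μM) comes from the concentration where absorbance reaches a 0.01 threshold, averaged across 490/535/650 nm. Samples were compound dilutions from DMSO stock, 1 μL into 99 μL buffer at pH 1.5, 4.5, 6.8 or 7.4.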

Data set [2] deals with B-Raf (Homo sapiens (Human), UniProt P15056). Put plainly: B-Raf kinase activity biochemical assay (AlphaScreen, biotin-MEK1 phosphorylation). The settings on record: B-Raf. Put shortly: (§1)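 Biotin-MEK1 phosphorylation measured after 45 min kinase reaction at RT with 100 μM ATP final; compounds tested at 8 points from 0.1 mM DMSO stock.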
Sequence of B-Raf (Homo sapiens (Human), UniProt P15056) (P15056 whole entry): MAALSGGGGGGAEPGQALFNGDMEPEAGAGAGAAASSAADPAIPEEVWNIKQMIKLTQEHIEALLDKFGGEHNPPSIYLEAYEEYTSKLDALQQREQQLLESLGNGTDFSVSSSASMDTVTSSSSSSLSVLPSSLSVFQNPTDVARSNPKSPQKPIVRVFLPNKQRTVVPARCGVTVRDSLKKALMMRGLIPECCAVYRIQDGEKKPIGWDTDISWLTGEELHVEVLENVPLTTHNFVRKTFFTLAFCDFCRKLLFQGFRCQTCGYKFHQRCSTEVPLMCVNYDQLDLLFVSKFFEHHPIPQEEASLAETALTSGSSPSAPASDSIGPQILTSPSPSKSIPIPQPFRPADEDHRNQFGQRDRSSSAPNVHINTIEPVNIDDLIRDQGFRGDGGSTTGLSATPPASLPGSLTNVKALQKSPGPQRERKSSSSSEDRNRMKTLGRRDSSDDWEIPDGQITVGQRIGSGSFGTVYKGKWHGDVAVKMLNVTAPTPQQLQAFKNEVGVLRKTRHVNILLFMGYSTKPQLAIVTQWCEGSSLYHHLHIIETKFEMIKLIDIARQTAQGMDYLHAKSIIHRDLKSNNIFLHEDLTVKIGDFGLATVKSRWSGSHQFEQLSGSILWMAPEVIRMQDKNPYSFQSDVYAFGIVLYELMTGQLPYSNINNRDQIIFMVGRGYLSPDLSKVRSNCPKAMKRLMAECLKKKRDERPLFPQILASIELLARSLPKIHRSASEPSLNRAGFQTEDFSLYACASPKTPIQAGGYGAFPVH
(Alpha assays give light when donor and acceptor beads are brought close together.)

Data set [3] has as its system B-Raf. The data set is described as above. The settings on record: for Biochemical activity ratio B/V600E: ratio of IC50 B-Raf / B-Raf V600E; for Biochemical activity ratio B/C: ratio of IC50 B-Raf / c-Raf-1. Put shortly: as §1
Another data set concerns the target CYP2C19 (Homo sapiens (Human), UniProt P33261). Put plainly: CYP enzyme inhibition, fluorescent substrate (CEC). Put shortly: (§2)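 IC50 values come from plotting product fluorescence against compound concentration; inhibition lowers formation of the fluorescent metabolite. Ten-point twofold dilutions in co-factor mix were held 10 minutes at 37 °C before the enzyme reaction, also run at 37 °C.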

In another data set the target is CYP2D6 (Homo sapiens (Human), UniProt P10635). The data set can be described thus: CYP enzyme inhibition, fluorescent substrate (AMMC). It counts as in vitro ADME. The settings on record: read-out: Cyp IC50 2D6. Put shortly: (§3)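 Ten-point 1:1 compound dilutions in NADPH-regenerating cofactor mix, pre-incubated 10 min at 37 °C before enzyme/substrate addition: CYP1A2 0.5 pmol with 5 μM CEC, 15 min, 409 ex/460 em; CYP2D6 1.5 pmol with 1.5 μM AMMC, 30 min, 409 ex/530 em. IC50 from fluorescent product vs concentration.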
Sequence of CYP2D6 (P10635 whole entry): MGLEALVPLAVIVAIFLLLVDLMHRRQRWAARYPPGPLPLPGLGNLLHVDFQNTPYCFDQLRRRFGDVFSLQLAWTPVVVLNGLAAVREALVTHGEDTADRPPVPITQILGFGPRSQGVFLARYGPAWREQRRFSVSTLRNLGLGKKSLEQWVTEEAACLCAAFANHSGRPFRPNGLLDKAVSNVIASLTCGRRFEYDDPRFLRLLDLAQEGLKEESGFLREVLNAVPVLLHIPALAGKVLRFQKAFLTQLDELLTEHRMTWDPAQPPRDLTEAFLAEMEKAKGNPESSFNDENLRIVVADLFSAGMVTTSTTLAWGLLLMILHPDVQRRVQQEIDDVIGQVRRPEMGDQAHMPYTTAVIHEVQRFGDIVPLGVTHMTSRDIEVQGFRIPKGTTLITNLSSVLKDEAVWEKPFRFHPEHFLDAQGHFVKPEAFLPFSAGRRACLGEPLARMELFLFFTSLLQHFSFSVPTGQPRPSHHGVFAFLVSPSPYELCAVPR

A further data set addresses CYP1A2 (Homo sapiens (Human), UniProt P05177). The data set can be described thus: CYP enzyme inhibition, fluorescent substrate (CEC). Put shortly:
as §3

The target of a further data set is B-Raf V600E (Homo sapiens (Human), UniProt P15056, V600E). Put plainly: B-Raf V600E kinase activity biochemical assay (AlphaScreen, biotin-MEK1 phosphorylation). The note with it: for IC50: B-Raf V600E; for Biochemical activity ratio V600E/C: ratio of IC50 B-Raf V600E / c-Raf-1. The method in brief: as §1
Sequence of B-Raf V600E (P15056 whole entry V600E): as the sequence (P15056 whole entry) above, with V600E counted along it
For another data set, the target named is c-Raf-1 (Homo sapiens, UniProt P04049). The data set can be described thus: c-Raf-1 kinase activity biochemical assay (AlphaScreen, biotin-MEK1 phosphorylation). The method in brief: as §1
Sequence of c-Raf-1 (P04049 whole entry, looked up): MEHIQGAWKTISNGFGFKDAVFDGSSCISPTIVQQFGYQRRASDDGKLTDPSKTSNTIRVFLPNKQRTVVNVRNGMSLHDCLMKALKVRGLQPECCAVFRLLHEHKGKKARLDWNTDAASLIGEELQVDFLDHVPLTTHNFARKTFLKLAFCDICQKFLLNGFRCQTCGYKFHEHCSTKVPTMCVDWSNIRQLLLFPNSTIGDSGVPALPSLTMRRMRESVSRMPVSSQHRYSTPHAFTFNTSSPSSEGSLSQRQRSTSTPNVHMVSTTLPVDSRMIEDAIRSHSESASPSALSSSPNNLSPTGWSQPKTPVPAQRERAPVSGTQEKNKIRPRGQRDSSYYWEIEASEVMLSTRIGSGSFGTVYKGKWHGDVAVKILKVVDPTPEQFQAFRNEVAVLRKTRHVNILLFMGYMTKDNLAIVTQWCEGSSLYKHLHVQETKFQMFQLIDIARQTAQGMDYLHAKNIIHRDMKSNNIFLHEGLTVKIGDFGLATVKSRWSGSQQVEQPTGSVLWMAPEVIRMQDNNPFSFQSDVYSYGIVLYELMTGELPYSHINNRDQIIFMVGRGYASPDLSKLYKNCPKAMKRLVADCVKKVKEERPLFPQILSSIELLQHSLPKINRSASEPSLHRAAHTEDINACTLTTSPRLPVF
Another data set addresses CYP2C9 (Homo sapiens (Human), UniProt P11712). The data set can be described thus: CYP enzyme inhibition, fluorescent substrate (MFC). The note with it: read-out: Cyp IC50 2C9; CYP2C9, substrate MFC. Put shortly: as §2
A further data set deals with CYP3A4(BFC) (Homo sapiens (Human), UniProt P08684). The data set can be described thus: CYP enzyme inhibition, fluorescent substrate BFC. The method in brief: as §2
Sequence of CYP3A4(BFC) (P08684 whole entry): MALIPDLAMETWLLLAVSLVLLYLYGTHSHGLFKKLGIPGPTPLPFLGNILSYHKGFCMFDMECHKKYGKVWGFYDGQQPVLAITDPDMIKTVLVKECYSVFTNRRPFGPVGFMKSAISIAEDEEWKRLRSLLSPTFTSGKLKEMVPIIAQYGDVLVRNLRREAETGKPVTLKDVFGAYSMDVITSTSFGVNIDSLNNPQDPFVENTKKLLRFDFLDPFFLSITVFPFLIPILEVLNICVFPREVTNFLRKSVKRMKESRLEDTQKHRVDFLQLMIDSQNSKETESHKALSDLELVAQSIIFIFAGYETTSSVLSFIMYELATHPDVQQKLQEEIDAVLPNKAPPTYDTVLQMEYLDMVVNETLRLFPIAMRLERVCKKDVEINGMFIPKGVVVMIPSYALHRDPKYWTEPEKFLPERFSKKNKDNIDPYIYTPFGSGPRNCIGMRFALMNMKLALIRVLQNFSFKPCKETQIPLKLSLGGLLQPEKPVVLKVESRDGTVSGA
The mark [4] stands for this setting: read-out: Cyp IC50 2C19, CYP2C19, substrate CEC.
Where [5] appears, read: read-out: Cyp IC50 3A4(BFC), CYP3A4, substrate BFC.

Results on 6 compounds are retold here after patent publication US9617267B2, “Compounds and methods for kinase modulation, and indications therefor” (Plexxikon Inc., priority 2009, dated 2017).

Molecules are shown by their SMILES. Like-named read-outs stand apart in the source and are kept apart here.

The term IC50 denotes the concentration at which inhibition is half-maximal.

Sequence of CYP2C19 (P33261 whole entry): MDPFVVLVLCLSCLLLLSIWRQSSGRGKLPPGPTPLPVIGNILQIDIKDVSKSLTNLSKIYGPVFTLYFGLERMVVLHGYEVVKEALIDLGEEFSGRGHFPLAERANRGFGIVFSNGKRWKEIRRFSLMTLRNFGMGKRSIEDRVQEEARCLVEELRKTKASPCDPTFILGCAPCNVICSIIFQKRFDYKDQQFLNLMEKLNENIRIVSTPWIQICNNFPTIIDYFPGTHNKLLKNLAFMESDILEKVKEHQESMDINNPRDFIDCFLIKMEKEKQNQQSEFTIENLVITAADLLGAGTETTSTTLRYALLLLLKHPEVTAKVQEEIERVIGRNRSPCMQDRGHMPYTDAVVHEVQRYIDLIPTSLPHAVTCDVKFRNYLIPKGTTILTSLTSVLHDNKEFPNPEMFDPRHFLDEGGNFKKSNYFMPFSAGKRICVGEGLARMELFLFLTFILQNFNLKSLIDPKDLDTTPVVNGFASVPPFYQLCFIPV
Sequence of CYP2C9 (P11712 whole entry): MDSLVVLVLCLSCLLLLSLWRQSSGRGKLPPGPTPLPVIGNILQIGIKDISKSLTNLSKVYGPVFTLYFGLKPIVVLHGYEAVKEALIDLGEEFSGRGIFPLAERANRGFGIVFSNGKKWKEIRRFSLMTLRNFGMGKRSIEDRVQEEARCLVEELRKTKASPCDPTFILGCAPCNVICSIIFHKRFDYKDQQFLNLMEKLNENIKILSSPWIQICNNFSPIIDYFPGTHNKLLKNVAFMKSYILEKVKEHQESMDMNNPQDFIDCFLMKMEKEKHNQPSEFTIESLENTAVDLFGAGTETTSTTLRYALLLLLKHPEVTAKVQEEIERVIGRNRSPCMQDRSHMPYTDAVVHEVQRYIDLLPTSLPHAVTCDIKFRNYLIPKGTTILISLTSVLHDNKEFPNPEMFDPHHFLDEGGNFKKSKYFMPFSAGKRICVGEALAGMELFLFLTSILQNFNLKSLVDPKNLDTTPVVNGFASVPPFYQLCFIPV
Sequence of CYP1A2 (P05177 whole entry): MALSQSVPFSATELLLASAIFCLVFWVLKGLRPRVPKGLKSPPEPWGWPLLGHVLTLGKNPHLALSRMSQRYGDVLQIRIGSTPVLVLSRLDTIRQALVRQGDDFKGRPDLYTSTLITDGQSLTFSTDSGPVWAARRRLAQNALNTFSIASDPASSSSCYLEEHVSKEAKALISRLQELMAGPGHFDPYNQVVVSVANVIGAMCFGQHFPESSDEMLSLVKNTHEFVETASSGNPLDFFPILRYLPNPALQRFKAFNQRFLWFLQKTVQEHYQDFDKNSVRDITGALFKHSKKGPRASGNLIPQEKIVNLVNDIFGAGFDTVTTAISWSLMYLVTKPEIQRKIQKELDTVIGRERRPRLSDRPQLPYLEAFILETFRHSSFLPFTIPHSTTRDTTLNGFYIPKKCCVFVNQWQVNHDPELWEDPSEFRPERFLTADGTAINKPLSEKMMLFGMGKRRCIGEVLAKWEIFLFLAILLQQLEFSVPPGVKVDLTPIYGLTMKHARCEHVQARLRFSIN

As for `O=C(c1c(F)ccc(NS(=O)(=O)c2ccc(C(F)(F)F)cc2)c1F)c1c[nH]c2ncnc(Cl)c12` [P-1016, N-[3-(4-Chloro-7H-pyrrolo[2,3-d]pyrimidine-5-carbonyl)-2,4-difluoro-phenyl]-4-trifluoromethyl-benzenesulfonamide], the “turbidity threshold (L, M, H) 1.4” value in data set [1] is “L (low solubility if the threshold concentration is <31.3 μM)”. In data set [1], the “turbidity threshold (L, M, H) 6.8” value was “L (low solubility if the threshold concentration is <31.3 μM)”. Also, the “turbidity threshold (L, M, H) 7.4” value in data set [1] is given as “H (high solubility if the threshold concentration is >250 μm)”. The IC50 against B-Raf [2] was > 0.1 µM; at CYP2C19 (setting [4]), > 10 µM; on CYP2D6, > 10 µM; at CYP1A2 (read-out: Cyp IC50 1A2, CYP1A2, substrate CEC) it was > 10 µM; at B-Raf V600E it was > 0.1 µM; on c-Raf-1 it was < 0.1 µM. The IC50 at CYP2C9 and at CYP3A4(BFC) (setting [5]) was > 10 µM throughout. In addition, the “Biochemical activity ratio B/V600E” value in the data set on B-Raf [3] is on record as 0.1-10. The “Biochemical activity ratio B/C” value with B-Raf [3] is >10. For the same compound, at B-Raf V600E, the “Biochemical activity ratio V600E/C” value was >10.
For `CCCc1ccc(S(=O)(=O)Nc2ccc(F)c(C(=O)c3c[nH]c4ncnc(Cl)c34)c2F)cc1` [P-1034, N-[3-(4-Chloro-7H-pyrrolo[2,3-d]pyrimidine-5-carbonyl)-2,4-difluoro-phenyl]-4-propyl-benzenesulfonamide], in [1], the “turbidity threshold (L, M, H) 1.4” value is reported as “M (moderate solubility if the threshold concentration is 31.3 μM to 250 μM)”. The “turbidity threshold (L, M, H) 4.5” value in data set [1] was “M (moderate solubility if the threshold concentration is 31.3 μM to 250 μM)”. Further, in data set [1], the “turbidity threshold (L, M, H) 6.8” value is given as “M (moderate solubility if the threshold concentration is 31.3 μM to 250 μM)”. Also, the “turbidity threshold (L, M, H) 7.4” value in data set [1] is on record as “M (moderate solubility if the threshold concentration is 31.3 μM to 250 μM)”. For the same compound, the IC50 against B-Raf [2] is > 0.1 µM; at CYP2C19, 5 to 10 µM; on CYP2D6 it was > 10 µM; at CYP1A2 (human, 15 min), > 10 µM; against B-Raf V600E, > 0.1 µM; at c-Raf-1 it was < 0.1 µM. In addition, the half-maximal inhibitory concentration (IC50) is > 10 µM at CYP2C9 and 5 to 10 µM against CYP3A4(BFC). Also, the “Biochemical activity ratio B/V600E” value in the data set on B-Raf [3] is 0.1-10. Also, the “Biochemical activity ratio B/C” value with B-Raf [3] is given as 0.1-10. Moreover, the “Biochemical activity ratio V600E/C” value on B-Raf V600E was >10.
Regarding `CNc1ncnc2[nH]cc(C(=O)c3c(F)ccc(NS(=O)(=O)c4ccc(C(F)(F)F)cc4)c3F)c12` [P-1026, N-[2,4-Difluoro-3-(4-methylamino-7H-pyrrolo[2,3-d]pyrimidine-5-carbonyl)-phenyl]-4-trifluoromethyl-benzenesulfonamide], the “turbidity threshold (L, M, H) 6.8” value in data set [1] is given as “M (moderate solubility if the threshold concentration is 31.3 μM to 250 μM)”. The “turbidity threshold (L, M, H) 7.4” value in data set [1] is “M (moderate solubility if the threshold concentration is 31.3 μM to 250 μM)”. In addition, the IC50 against B-Raf [2] was > 0.1 µM; at CYP2C19 (setting [4]), > 10 µM; at CYP2D6, > 10 µM; at CYP1A2 (human, 15 min) it was > 10 µM; on B-Raf V600E, > 0.1 µM; at c-Raf-1 it was < 0.1 µM. Also, the IC50 on CYP2C9 and at CYP3A4(BFC) (setting [5]) was > 10 µM throughout. Also, in the data set with B-Raf [3], the “Biochemical activity ratio B/V600E” value is reported as 0.1-10. The “Biochemical activity ratio B/C” value in the data set on B-Raf [3] is listed as >10. Also, on B-Raf V600E, the “Biochemical activity ratio V600E/C” value is on record as >10.
`CC(C)Nc1ncnc2[nH]cc(C(=O)c3c(F)ccc(NS(=O)(=O)c4ccc(C(F)(F)F)cc4)c3F)c12` [P-1039, N-[2,4-Difluoro-3-(4-isopropylamino-7H-pyrrolo[2,3-d]pyrimidine-5-carbonyl)-phenyl]-4-trifluoromethyl-benzenesulfonamide]: the “turbidity threshold (L, M, H) 1.4” value in [1] was “M (moderate solubility if the threshold concentration is 31.3 μM to 250 μM)”. In addition, the “turbidity threshold (L, M, H) 4.5” value in data set [1] was “M (moderate solubility if the threshold concentration is 31.3 μM to 250 μM)”. The “turbidity threshold (L, M, H) 6.8” value in data set [1] is given as “M (moderate solubility if the threshold concentration is 31.3 μM to 250 μM)”. The “turbidity threshold (L, M, H) 7.4” value in data set [1] is reported as “M (moderate solubility if the threshold concentration is 31.3 μM to 250 μM)”. Also, the IC50 is < 0.1 µM on B-Raf [2]; > 10 µM at CYP2C19 (setting [4]); > 10 µM at CYP2D6; > 10 µM against CYP1A2 (human, 15 min); < 0.1 µM against B-Raf V600E; < 0.1 µM against c-Raf-1. In addition, the 50% inhibitory concentration (IC50) was > 10 µM on CYP2C9 and 5 to 10 µM on CYP3A4(BFC). Also, the “Biochemical activity ratio B/V600E” value with B-Raf [3] is reported as 0.1-10. Moreover, in the data set with B-Raf [3], the “Biochemical activity ratio B/C” value was >10. Besides, at B-Raf V600E, the “Biochemical activity ratio V600E/C” value is listed as >10.
As for `O=C(c1c(F)ccc(NS(=O)(=O)c2ccc(C(F)(F)F)cc2)c1F)c1c[nH]c2ncnc(Nc3ccccc3)c12` [P-1037, N-[2,4-Difluoro-3-(4-phenylamino-7H-pyrrolo[2,3-d]pyrimidine-5-carbonyl)-phenyl]-4-trifluoromethyl-benzenesulfonamide], in [1], the “turbidity threshold (L, M, H) 1.4” value is on record as “L (low solubility if the threshold concentration is <31.3 μM)”. In addition, the “turbidity threshold (L, M, H) 4.5” value in data set [1] is listed as “L (low solubility if the threshold concentration is <31.3 μM)”. Besides, the “turbidity threshold (L, M, H) 6.8” value in data set [1] is recorded as “L (low solubility if the threshold concentration is <31.3 μM)”. Also, in [1], the “turbidity threshold (L, M, H) 7.4” value is “L (low solubility if the threshold concentration is <31.3 μM)”. The IC50 on B-Raf [2] was < 0.1 µM; at CYP2C19 (setting [4]), < 5 µM; on CYP2D6, > 10 µM; against CYP1A2 (human, 15 min) it was > 10 µM; at B-Raf V600E it was > 0.1 µM; against c-Raf-1, < 0.1 µM. For the same compound, the IC50 on CYP2C9 and on CYP3A4(BFC) (setting [5]) was > 10 µM throughout. Also, the “Biochemical activity ratio B/V600E” value in the data set with B-Raf [3] is listed as 0.1-10. Further, the “Biochemical activity ratio B/C” value in the data set on B-Raf [3] is >10. The “Biochemical activity ratio V600E/C” value on B-Raf V600E is >10.
Turning to `CCNc1ncnc2[nH]cc(C(=O)c3c(F)ccc(NS(=O)(=O)c4ccc(C(F)(F)F)cc4)c3F)c12` [P-1024, N-[3-(4-Ethylamino-7H-pyrrolo[2,3-d]pyrimidine-5-carbonyl)-2,4-difluoro-phenyl]-4-trifluoromethyl-benzenesulfonamide], the “turbidity threshold (L, M, H) 1.4” value in data set [1] was “M (moderate solubility if the threshold concentration is 31.3 μM to 250 μM)”. The “turbidity threshold (L, M, H) 4.5” value in [1] is on record as “L (low solubility if the threshold concentration is <31.3 μM)”. Also, the “turbidity threshold (L, M, H) 6.8” value in data set [1] is listed as “L (low solubility if the threshold concentration is <31.3 μM)”. The “turbidity threshold (L, M, H) 7.4” value in data set [1] is listed as “L (low solubility if the threshold concentration is <31.3 μM)”. Moreover, the IC50 on B-Raf [2] was < 0.1 µM; against CYP2C19, 5 to 10 µM; at CYP2D6, > 10 µM; against CYP1A2 (human, 15 min), > 10 µM; at B-Raf V600E, > 0.1 µM; at c-Raf-1 it was < 0.1 µM. In addition, the IC50 on CYP2C9 and on CYP3A4(BFC) (setting [5]) was > 10 µM in each case. In addition, the “Biochemical activity ratio B/V600E” value in the data set with B-Raf [3] is given as 0.1-10. The “Biochemical activity ratio B/C” value in the data set on B-Raf [3] is on record as >10. In addition, at B-Raf V600E, the “Biochemical activity ratio V600E/C” value is >10.
